Experiments:
[1] = pH and the chemical integrity (rate of non-radioactive impurity formation) of the non-radioactive congener; type: physicochemical; details: ascorbic acid 50 mg/mL, congener 5 μg/mL, ethanol 5%, treated with [18F]NaF
Description: (§1) Both chemical integrity and overall stability of a radiopharmaceutical composition is measured through determination of the change in RCP of the labeled compound over time using ITLC or more preferably HPLC. The advantage of using HPLC is that impurities caused by radiolytic degradation may be readily separated from the labeled compound under certain chromatographic conditions. […] Several HPLC methods have been developed for monitoring the stability of radiopharmaceutical compositions of the present invention:
(§2) Analytical HPLC was performed on an Agilent Technologies 1100 LC containing a spectrophotometric detection system. Non-radiochemical impurities were evaluated at 295 nm using a Waters Zorbax SB-C18 column (4.6×50 mm, 1.8 μm) with an 8%/min gradient from 20-100% MeCN containing 0.1% formic acid and 10% H2O at 1 mL/min
The chemical integrity of radiopharmaceutical compositions containing the non-radioactive congener of the imaging agent (2-(tert-butyl)-4-chloro-5-((4-((2-fluoroethoxy)methyl)benzyl)oxy)pyridazin-3(2H)-one) was assessed over a range of pH values. […] The resulting solutions were treated with [^18F]NaF then monitored for changes in chemical purity (non-radioactive impurities) over time using the HPLC methods outlined in Example 5.

[2] = cited from earlier work
[3] = Concentration of ascorbic acid and the stability (radiochemical purity over time) of an imaging agent; type: physicochemical; details: pH 5.8
Description: (§3) was then collected, diluted with an ascorbic acid solution (10-15 mL), then passed through a C18 Sep-Pak® cartridge, previously conditioned with 10 mL of ethanol followed by 10 mL of an ascorbic acid solution; The imaging agent was retained within the C18 resin matrix and the filtrate discarded. The cartridge was then successively washed with an ascorbic acid solution (10 mL), the filtrate discarded, then absolute ethanol (≦0.5 mL) and the filtrate collected. The resulting ethanol concentrate of the imaging agent was then diluted with an ascorbic acid solution prior to use.
(§4) Both chemical integrity and overall stability of a radiopharmaceutical composition is measured through determination of the change in RCP of the labeled compound over time using ITLC or more preferably HPLC. The advantage of using HPLC is that impurities caused by radiolytic degradation may be readily separated from the labeled compound under certain chromatographic conditions. […]
The stability of radiopharmaceutical compositions containing an imaging agent was assessed over a range of ascorbic acid concentration values. […] Each solution was then utilized in the preparation of the imaging agent described in Example 4, and the resulting compositions monitored for changes in radiochemical purity over time using the HPLC methods described in Example 5.

[4] = pH and the stability (radiochemical purity over time) of an imaging agent; type: physicochemical; details: ascorbic acid solutions with higher pH values (pH 5.8 and 6.5) versus more acidic compositions (pH 2.4-4.6)
Description: as §3, §4
Analytical HPLC was performed on an Agilent Technologies 1100 LC containing a radiometric detection system. Radiochemical impurities were evaluated using a Berthold radiation detector and a Waters Zorbax SB-C18 column (4.6×50 mm, 1.8 μm) using an isocratic elution (45:55 H2O/MeCN) at 1 mL/min […]
The stability of radiopharmaceutical compositions containing an imaging agent was assessed over a range of pH values. […]

[5] = Stability (radiochemical purity over time by HPLC) of radiopharmaceutical compositions over a range of ascorbic acid and radioactivity concentrations; type: physicochemical; details: pH 5.8
Description: The radiochemical purity (RCP) of a labeled compound (i.e., as in Example 3) is known to be dependent on certain conditions of its preparation including, but not limited to, reaction temperature, solution pH and overall synthesis time. Once prepared with high RCP, the labeled compound is formulated into a radiopharmaceutical composition designed to stabilize the labeled compound over time. Certain radiopharmaceutical compositions of the present invention are effective in maintaining the stability of labeled compounds for up to 12 h.
as §1
Analytical HPLC was performed on an Agilent Technologies 1100 LC containing a radiometric detection system. Radiochemical impurities were evaluated using a Berthold radiation detector and a Waters Zorbax SB-C18 column (4.6×50 mm, 1.8 μm) using an isocratic elution (45:55 H2O/MeCN) at 1 mL/min
as §2
Analytical HPLC was performed on an Agilent Technologies 1100 LC containing both radiometric and spectrophotometric detection systems. Radiochemical impurities were evaluated using a Raytest GabiStar radiation detector and non-radiochemical impurities were evaluated at 295 nm both using a Waters Zorbax SB-C18 column (4.6×50 mm, 1.8 μm) with a 6%/min gradient from 20-50% MeCN, followed by a 1.4%/min gradient from 50-60% MeCN, followed by a 2%/min gradient from 60-70% MeCN each containing 0.1% formic acid and 10% H2O at 1 mL/min.
Analytical HPLC was performed on an Agilent Technologies 1100 LC containing both radiometric and spectrophotometric detection systems. Radiochemical impurities were evaluated using a Raytest GabiStar radiation detector and non-radiochemical impurities were evaluated at 295 nm both using a Waters Zorbax SB-C18 column (4.6×50 mm, 1.8 μm) with a 30%/min gradient from 30-60% MeCN, followed by a 2 min isocratic hold at 60% MeCN, followed by a 5%/min gradient from 60-80% MeCN each containing 0.1% trifluoroacetic acid and 10% H2O at 1 mL/min
Aqueous [^18F]fluoride, as prepared in Example 1, was filtered through an anion exchange column to remove unreacted [^18O]H2O; [^18F]fluoride was retained within the […] resin matrix. The column was then washed with aqueous Et4NHCO3 with transfer to the reaction vessel. The resulting solution was diluted with MeCN then concentrated to dryness using elevated temperature and reduced pressure. The mixture of anhydrous [^18F]Et4NF and Et4NHCO3 thus obtained was treated with the acetonitrile solution of the imaging agent precursor as prepared in Example 2, then warmed to 85-120° C. and maintained 5-20 min. After cooling, the solution was diluted with H2O or H2O/MeCN then directly purified by HPLC using a 45:55 H2O/MeCN eluent. The main product peak was collected and diluted with ascorbic acid (10 mL of a 0.28 M solution; pH 2).
was retained within the C18 resin matrix and the filtrate discarded. The cartridge was successively washed with ascorbic acid (10 mL of a 0.28 M solution in H2O; pH 2), the filtrate discarded, then absolute EtOH (≦0.50 mL), and the filtrate collected. […]

Compound: CC(C)(C)n1ncc(OCc2ccc(COCCF)cc2)c(Cl)c1=O [2-(tert-butyl)-4-chloro-5-((4-((2-fluoroethoxy)methyl)benzyl)oxy)pyridazin-3(2H)-one]
- Reaction order of formation of certain non-radioactive impurities (FIG. 2) [1]: first order
- Reduction in the rate of impurity formation (non-radioactive impurities, FIG. 2) ([1]; over the pH range considered (4.0-8.2)): ten-fold reduction

Compound: O=C1O[C@H]([C@@H](O)CO)C(O)=C1O [ascorbic acid]
- pKa [2]: about 4.2

Compound: CC(C)(C)n1ncc(OCc2ccc(COCC[18F])cc2)c(Cl)c1=O [imaging agent, 2-tert-butyl-4-chloro-5-[4-(2-[18F]fluoro-ethoxymethyl)-benzyloxy]-2H-pyridazin-3-one]
- RCP (FIG. 3) ([3]; ascorbic acid 20 mg/mL): overall decrease in RCP
- Initial RCP and variability in RCP over time (FIG. 3) ([3]; ascorbic acid 200 to 50 mg/mL): do not significantly change
- Initial RCP and change in RCP over time (FIG. 1) [4]: markedly less initial stability and stability to storage
- Radiochemical Purity ([5]; 0 h, ascorbic acid 30 mg/mL, 29.5 mCi/mL, Siemens GN module): 100.0%
- Radiochemical Purity ([5]; 0 h, ascorbic acid 30 mg/mL, 68.0 mCi/mL, Eckert & Ziegler module): 100.0%
- Radiochemical Purity ([5]; 0 h, ascorbic acid 50 mg/mL, 44.8 mCi/mL, Eckert & Ziegler module): 100.0%
- Radiochemical Purity ([5]; 0 h, ascorbic acid 50 mg/mL, 47.0 mCi/mL, Siemens GN module): 100.0%
- Radiochemical Purity ([5]; 0 h, ascorbic acid 50 mg/mL, 50.0 mCi/mL, Siemens RN module): 100.0%
- Radiochemical Purity ([5]; 0 h, ascorbic acid 50 mg/mL, 65.4 mCi/mL, GE MX module): 100.0%
- Radiochemical Purity ([5]; 0 h, ascorbic acid 50 mg/mL, 115.9 mCi/mL, Siemens GN module): 99.7%
- Radiochemical Purity ([5]; 3 h, ascorbic acid 30 mg/mL, 29.5 mCi/mL, Siemens GN module): 100.0%
- Radiochemical Purity ([5]; 3 h, ascorbic acid 30 mg/mL, 68.0 mCi/mL, Eckert & Ziegler module): 97.6%
- Radiochemical Purity ([5]; 3 h, ascorbic acid 50 mg/mL, 44.8 mCi/mL, Eckert & Ziegler module): 100.0%
- Radiochemical Purity ([5]; 3 h, ascorbic acid 50 mg/mL, 47.0 mCi/mL, Siemens GN module): 100.0%
- Radiochemical Purity ([5]; 3 h, ascorbic acid 50 mg/mL, 50.0 mCi/mL, Siemens RN module): 98.2%
- Radiochemical Purity ([5]; 3 h, ascorbic acid 50 mg/mL, 65.4 mCi/mL, GE MX module): 100.0%
- Radiochemical Purity ([5]; 3 h, ascorbic acid 50 mg/mL, 115.9 mCi/mL, Siemens GN module): 97.1%
- Radiochemical Purity ([5]; 6 h, ascorbic acid 30 mg/mL, 29.5 mCi/mL, Siemens GN module): 100.0%
- Radiochemical Purity ([5]; 6 h, ascorbic acid 30 mg/mL, 68.0 mCi/mL, Eckert & Ziegler module): 96.7%
- Radiochemical Purity ([5]; 6 h, ascorbic acid 50 mg/mL, 44.8 mCi/mL, Eckert & Ziegler module): 100.0%
- Radiochemical Purity ([5]; 6 h, ascorbic acid 50 mg/mL, 47.0 mCi/mL, Siemens GN module): 99.2%
- Radiochemical Purity ([5]; 6 h, ascorbic acid 50 mg/mL, 50.0 mCi/mL, Siemens RN module): 99.0%
- Radiochemical Purity ([5]; 6 h, ascorbic acid 50 mg/mL, 65.4 mCi/mL, GE MX module): 98.7%
- Radiochemical Purity ([5]; 6 h, ascorbic acid 50 mg/mL, 115.9 mCi/mL, Siemens GN module): 97.1%
- Radiochemical Purity ([5]; 9 h, ascorbic acid 30 mg/mL, 29.5 mCi/mL, Siemens GN module): 100.0%
- Radiochemical Purity ([5]; 9 h, ascorbic acid 30 mg/mL, 68.0 mCi/mL, Eckert & Ziegler module): 96.2%
- Radiochemical Purity ([5]; 9 h, ascorbic acid 50 mg/mL, 44.8 mCi/mL, Eckert & Ziegler module): 100.0%
- Radiochemical Purity ([5]; 9 h, ascorbic acid 50 mg/mL, 47.0 mCi/mL, Siemens GN module): 99.4%
- Radiochemical Purity ([5]; 9 h, ascorbic acid 50 mg/mL, 50.0 mCi/mL, Siemens RN module): 98.0%
- Radiochemical Purity ([5]; 9 h, ascorbic acid 50 mg/mL, 65.4 mCi/mL, GE MX module): 99.3%
- Radiochemical Purity ([5]; 9 h, ascorbic acid 50 mg/mL, 115.9 mCi/mL, Siemens GN module): 96.0%
- Radiochemical Purity ([5]; 12 h, ascorbic acid 30 mg/mL, 29.5 mCi/mL, Siemens GN module): 100.0%
- Radiochemical Purity ([5]; 12 h, ascorbic acid 30 mg/mL, 68.0 mCi/mL, Eckert & Ziegler module): 96.1%
- Radiochemical Purity ([5]; 12 h, ascorbic acid 50 mg/mL, 44.8 mCi/mL, Eckert & Ziegler module): 100.0%
- Radiochemical Purity ([5]; 12 h, ascorbic acid 50 mg/mL, 47.0 mCi/mL, Siemens GN module): 99.5%
- Radiochemical Purity ([5]; 12 h, ascorbic acid 50 mg/mL, 50.0 mCi/mL, Siemens RN module): 98.2%
- Radiochemical Purity ([5]; 12 h, ascorbic acid 50 mg/mL, 65.4 mCi/mL, GE MX module): 96.9%
- Radiochemical Purity ([5]; 12 h, ascorbic acid 50 mg/mL, 115.9 mCi/mL, Siemens GN module): 96.0%
- Initial RCP and variability in RCP over time ([5]; over 30 to 50 mg/mL ascorbic acid and 30 to 115 mCi/mL): do not significantly change
